Source: BindingDB's records for doi:10.1021/jm801427r (Universita Di Pisa, 2009)
pKi: −log10 of the molar value.

Target: T1, Adenosine deaminase (Bos taurus, UniProt P56658)
T1 sequence (P56658 whole entry): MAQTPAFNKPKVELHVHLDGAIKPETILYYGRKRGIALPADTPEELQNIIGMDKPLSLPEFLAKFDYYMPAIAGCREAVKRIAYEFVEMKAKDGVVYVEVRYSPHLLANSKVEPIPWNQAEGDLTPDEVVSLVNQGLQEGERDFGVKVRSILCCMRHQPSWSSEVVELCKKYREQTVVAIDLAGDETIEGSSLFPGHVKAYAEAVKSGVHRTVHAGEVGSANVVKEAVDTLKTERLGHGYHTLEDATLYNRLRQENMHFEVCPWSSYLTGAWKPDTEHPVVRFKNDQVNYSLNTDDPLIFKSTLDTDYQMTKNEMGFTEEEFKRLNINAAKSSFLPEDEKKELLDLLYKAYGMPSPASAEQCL
Experiment: ADA Enzyme Inhibition Assay
Settings: pH 7.2; 30 °C
Procedure: The activity of ADA was determined spectrophotometrically by monitoring the change in absorbance at 262 nm, due to the deamination of adenosine catalyzed by the enzyme. The change in adenosine concentration per min was determined using a Beckman DU-64 kinetics software program (Solf Pack TM Module). To correct for the background change in absorption, a reference blank containing all the assay components except the substrate was prepared. Each inhibitor concentration was tested in triplicate. The IC50 values were determined by linear regression analysis of dose-response curves. The Ki values were calculated from IC50 values by means of the Cheng and Prusoff.

`O=C(Nc1ccccc1)Nc1ccc(Cn2cc3c(=O)[nH]cnc3n2)cc1` [3-[4-({4-oxo-2H,4H,5H-pyrazolo[3,4-d]pyrimidin-2-yl}methyl)phenyl]-1-phenylurea] gave a pKi of 8.62.

`COc1ccc(NC(=O)Nc2ccc(Cn3cc4c(=O)[nH]cnc4n3)cc2)cc1` [1-(4-methoxyphenyl)-3-[4-({4-oxo-2H,4H,5H-pyrazolo[3,4-d]pyrimidin-2-yl}methyl)phenyl]urea] gave a pKi of 7.55.

Work on `COc1ccc(C(=O)Nc2ccc(Cn3cc4c(=O)[nH]cnc4n3)cc2)cc1` [4-methoxy-N-[4-({4-oxo-2H,4H,5H-pyrazolo[3,4-d]pyrimidin-2-yl}methyl)phenyl]benzamide] yielded a pKi of 7.81.

`O=C(Nc1ccc(Cn2cc3c(=O)[nH]cnc3n2)cc1)c1ccccc1` [N-[4-({4-oxo-2H,4H,5H-pyrazolo[3,4-d]pyrimidin-2-yl}methyl)phenyl]benzamide] gave a pKi of 7.90.

`O=C(Nc1ccc(Cn2cc3c(=O)[nH]cnc3n2)cc1)c1ccc(F)cc1` [4-fluoro-N-[4-({4-oxo-2H,4H,5H-pyrazolo[3,4-d]pyrimidin-2-yl}methyl)phenyl]benzamide] was tested, and the pKi was 9.02.

With `O=C(Nc1ccc(Cc2ccccc2)cc1)Nc1ccc(Cn2cc3c(=O)[nH]cnc3n2)cc1` [1-(4-benzylphenyl)-3-[4-({4-oxo-2H,4H,5H-pyrazolo[3,4-d]pyrimidin-2-yl}methyl)phenyl]urea] the pKi was 6.73.

`O=C(Nc1ccc(Cn2cc3c(=O)[nH]cnc3n2)cc1)Nc1ccc(OCc2ccccc2)cc1` [1-[4-(benzyloxy)phenyl]-3-[4-({4-oxo-2H,4H,5H-pyrazolo[3,4-d]pyrimidin-2-yl}methyl)phenyl]urea] gave a pKi of 6.97.

Work on `O=C(Nc1ccc(Cn2cc3c(=O)[nH]cnc3n2)cc1)Nc1ccc(C(F)(F)F)cc1` [3-[4-({4-oxo-2H,4H,5H-pyrazolo[3,4-d]pyrimidin-2-yl}methyl)phenyl]-1-[4-(trifluoromethyl)phenyl]urea] yielded a pKi of 9.80.

`O=C(Cc1ccccc1)Nc1ccc(Cn2cc3c(=O)[nH]cnc3n2)cc1` [N-[4-({4-oxo-2H,4H,5H-pyrazolo[3,4-d]pyrimidin-2-yl}methyl)phenyl]-2-phenylacetamide] showed a pKi of 7.32.

`CCCCCC[C@H]([C@H](C)O)n1cnc2c(N)ncnc21` [(2S,3R)-3-(6-amino-9H-purin-9-yl)nonan-2-ol] was tested, and the pKi was 8.94.

`O=C(NCc1ccccc1)Nc1ccc(Cn2cc3c(=O)[nH]cnc3n2)cc1` [1-benzyl-3-[4-({4-oxo-2H,4H,5H-pyrazolo[3,4-d]pyrimidin-2-yl}methyl)phenyl]urea] gave a pKi of 7.07.

Work on `O=C(Nc1ccc(F)cc1)Nc1ccc(Cn2cc3c(=O)[nH]cnc3n2)cc1` [1-(4-fluorophenyl)-3-[4-({4-oxo-2H,4H,5H-pyrazolo[3,4-d]pyrimidin-2-yl}methyl)phenyl]urea] yielded a pKi of 8.94.

For `CN(C)c1ccc(NC(=O)Nc2ccc(Cn3cc4c(=O)[nH]cnc4n3)cc2)cc1` [1-[4-(dimethylamino)phenyl]-3-[4-({4-oxo-2H,4H,5H-pyrazolo[3,4-d]pyrimidin-2-yl}methyl)phenyl]urea], the pKi was 8.70.

`O=C(Nc1ccc(Cn2cc3c(=O)[nH]cnc3n2)cc1)c1ccc(C(F)(F)F)cc1` [N-[4-({4-oxo-2H,4H,5H-pyrazolo[3,4-d]pyrimidin-2-yl}methyl)phenyl]-4-(trifluoromethyl)benzamide] gave a pKi of 9.29.
